Tests used:
[1] = biological target: T1, Human Histamine H3 Receptor (Homo sapiens, UniProt Q9Y5N1); assay: Methyl histamine binding in human histamine H3 receptor cell line; details: read-out: H3 Binding Ki
T1 construct: expressed in transfected cells; host or cells: HEK293T (stably transfected; membranes prepared from the cells)
Method in brief: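 Radioligand binding on membranes (10 μg/well) from a human H3 receptor cell line, 1 nM radioligand, 1 h at 30° C. in 50 mM Tris pH 7.5. Nonspecific binding defined with 10 uM clobenpropit, followed by filtration and scintillation counting. IC50 from four-parameter fit, converted to Ki by Cheng-Prusoff.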

T1 sequence (Q9Y5N1 whole entry): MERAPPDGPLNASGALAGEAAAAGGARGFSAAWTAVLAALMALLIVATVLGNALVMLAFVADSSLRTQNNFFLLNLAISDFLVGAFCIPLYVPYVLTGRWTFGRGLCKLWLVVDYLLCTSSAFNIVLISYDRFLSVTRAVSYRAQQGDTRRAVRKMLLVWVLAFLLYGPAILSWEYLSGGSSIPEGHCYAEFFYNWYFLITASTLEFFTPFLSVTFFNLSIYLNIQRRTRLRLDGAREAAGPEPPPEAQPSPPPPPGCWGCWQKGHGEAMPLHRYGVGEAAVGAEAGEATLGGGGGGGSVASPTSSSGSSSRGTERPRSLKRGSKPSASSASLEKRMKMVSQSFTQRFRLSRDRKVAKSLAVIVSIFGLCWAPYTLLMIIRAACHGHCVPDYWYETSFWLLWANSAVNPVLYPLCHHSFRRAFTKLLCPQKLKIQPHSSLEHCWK

Ki [1]: 50.1 to 100 nM
melting point: 257 to 259 °C
Structure (SMILES): c1cc2c(cc1-c1ccc3c(c1)OCO3)CCN(CCN1CCCC1)C2 [Example 176, 6-(1,3-benzodioxol-5-yl)-2-(2-pyrrolidin-1-ylethyl)-1,2,3,4-tetrahydroisoquinoline]
